Laboratory results taken from patent US20080299123A1, “TREATMENT OF CHEMOTHERAPY- OR RADIOTHERAPY-RESISTANT TUMORS” (Deutsches Krebsforschungszentrum Stiftung des offentlichen …, priority 2006, published 2008).

What was measured:
Assay type in all cases: cell-based, human
PT45-P1res cells = assay: Caspase-3/-7 assay in PT45-P1res cells; conditions: for apoptosis induction after etoposide treatment (caspase-3/-7): inhibitor 10 μmol/L, 20 μg/mL etoposide 24 hours
Method: (a) PT45-P1 res cells were transfected with control siRNA or with two L1CAM specific siRNAs. Western blotting for the detection of full-length L1CAM or of HSP90 as a control for equal protein load was performed (upper panel). In parallel, siRNA transfected PT45-P1res cells were treated with 20 μg/mL etoposide or not for 24 hours and caspase-3/-7 activity was determined. (b) siRNA transfected PT45-P1res cells were subjected to L1CAM immunostaining (L1-11A antibody) or staining with an isotype matched control antibody followed by flow cytometry. One representative histogram is shown. (c) siRNA transfected PT45-P1res cells were analysed by western blotting for the detection of full-length L1 CAM, αv-integrin or HSP90 (d) After overnight siRNA transfection, cells were either left untreated or were either treated with 20 μg/mL etoposide or with 5 μg/mL gemcitabine for 24 hours, followed by either AnnexinV/PI staining and flow cytometry (AnnexinV positive cells over basal) or by caspase-3/-7 assay (n-fold induced caspase-3/-7 activity of basal). (e) PT45-P1res cells were either left untreated (w/o) or were treated with 20 μg/mL etoposide in the absence (w/o) or presence of either 5 μg/mL anti L1CAM antibody (Clone L1-11A) or 5 μg/mL isotype matched control antibody. After 24 hours, cells were analysed by AnnexinV/PI staining or by caspase-3/-7 assay. Means±SD from three independent experiments are shown. * indicates p<0.05.
(§1) As described elsewhere (Sebens Müerköster et al., 2006), apoptosis was determined by staining with annexinV/propidium iodide (Biocarta, Hamburg, Germany) and subsequent fluorescence flow cytometry (GalaxyArgon Plus; DAKO Cytomation, Hamburg, Germany) using the FLOMAX software, and by the detection of caspase-3/-7 activity using a homogeneous luminescent assay (Promega, Mannheim, Germany). All samples were measured in duplicates.
(§2) For L1CAM transfection, PT45-P1 cells were seeded into 6 well plates (2×10^5 cells/well), were grown overnight, followed by transfection with 5 μL/well DIMRIE reagent (Invitrogen) and 0.6 μg/well of the following plasmids: pcDNA3.1 (mock) or pcDNA3.1-L1CAM (L1CAM). Upon transfection for 18 hours, 1 mL medium containing 20% FCS was added and cells were left untreated or were treated as indicated for further 24 hours. For knock down of L1CAM, PT45-P1res cells were seeded into 12 well plates (1×10^5 cells/well), were grown overnight followed by transfection with 12 μL/well RNAiFect reagent (Invitrogen) and 2 μg/well of either Stealth negative control siRNA (Invitrogen) or Stealth L1CAM siRNA (Invitrogen). After overnight transfection, cells were either left untreated or treated as indicated for further 24 hours.

L1CAM [1] = assay: L1CAM expression in PT45-P1res cells (western blotting, flow cytometry, real-time PCR); conditions: for L1CAM expression (full-length 220 kDa and 32 kD fragment): inhibitor 10 μmol/L, 24 hours
Method: After washing in PBS, cells grown in 6-well culture plates were detached with 5 mmol/L EDTA in PBS and then washed with PBS once again. Blocking was conducted in 1% BSA/PBS for 60 min. at room temperature followed by incubation with the anti L1CAM antibody L1-11A or an isotype matched control antibody (1:1000, in 1% BSA/PBS) at 4° C. overnight. Then, cells were washed three times in PBS followed by incubation (60 min, 37° C.) with a goat-anti mouse antibody conjugated with Alexa flour 488 (Dianova, Hamburg, Germany) diluted 1:500 in 1% BSA/PBS. After washing in PBS, cells were resuspended in 500 μL PBS and analysed by fluorescence flow cytometry.
(§3) Cells were seeded into 6 well and 12 well plates, respectively, and transfected or treated as indicated. Then, cells were washed once with PBS and lysed with 1 volume of 2×SDS sample buffer (128 mmol/L Tris-Base, 4.6% SDS, 10% glycerol). Samples were heated for 5 minutes at 95° C. and put on ice for 2 minutes. Protein concentrations were determined using the Dc Protein assay (BioRad). Ten μg of protein adjusted to an appropriate volume of SDS sample buffer containing 0.2 mg/mL bromphenolblue (Serva, Heidelberg, Germany) and 2.5% β-mercaptoethanol (Biomol, Hamburg, Germany) were submitted to electrophoresis on a 4-20% ProGel-Tris-glycin-gel (Anamed, Darmstadt, Germany) and immunoblotting was performed as described previously (Arlt et al, 2001). For detection of L1CAM, a monoclonal antibody (clone UJ127 from Acris Antibodies) was diluted at a concentration of 0.4 μg/mL in 5% nonfat milk powder and 0.05% Tween in TBS (blotto) and incubated overnight at 4° C. For detection of the cytoplasmic domain of L1CAM, the pcytL1 antibody (Mechtersheimer et al., 2001) was used at a concentration of 1 μg/mL in blotto and incubated overnight at 4° C. As control of equal protein load, a polyclonal rabbit antibody for HSP90 (Santa Cruz, Heidelberg, Germany) was diluted 1:2000 in blotto. The mouse anti CD51 antibody from Beckman Coulter GmbH (Krefeld, Germany) was used at a concentration of 1:500 in blotto for detection of human αv integrin. Incubation with the primary antibodies was performed overnight at 4° C. For detection of the primary antibodies, anti-mouse and anti-rabbit HRP-linked antibodies (Cell Signaling), respectively, were used at a dilution of 1:2000 in blotto-TBST at room temperature for 1 hour. After washing in TBST, blots were developed using the LumiGlo peroxidase detection kit (Cell Signaling).
2 μg of total RNA were reverse-transcribed into single-stranded cDNA, as described previously (Schafer et al., 1999). Two μL of cDNA and 0.2 μmol/L gene-specific primers were adjusted with RNAse-free water to a volume of 15 μL. To this mixture, 15 μL of iQ SYBR Green Supermix (BioRad) were added. Primers for the detection of L1CAM (Gavert et al., 2005) were used under the following conditions: 95° C./1 min; 95° C./1 min, 52° C./30 see, 72° C./30 see for 40 cycles; 72° C./10 min. Primers for the detection of iNOS were from Biosource (Ratingen, Germany) and used under the following PCR conditions: 95° C./5 min; 95° C./45 sec, 60° C./45 sec, 72° C./45 sec for 40 cycles; 72° C./10 min. For control, β-actin was amplified in parallel using primers from BD Biosciences Clontech. […] Data were collected during annealing steps and were further analysed by using the i-Cycler iQ Optical system software (BioRad). All samples were analysed in duplicates and data are expressed as amount of mRNA in arbitrary units.

[2] = system: L1CAM transfected PT45-P1 cells; assay: Caspase-3/-7 assay in L1CAM transfected PT45-P1 cells; conditions: inhibitor 10 μmol/L, 20 μg/mL etoposide 24 hours
Method: (§4) PT45-P1res cells (a,b) or PT45-P1 cells transfected with L1CAM or an empty control vector (mock) (c,d) were left untreated (w/o) or were either treated with Tapi-0, Tapi-1, GM6001 or L685,458 (each 10 μmol/L) for 24 hours. (a,c) Cellular lysates were subjected to western blotting using either the antibody clone UJ127 from Acris detecting only full-length L1CAM or the pcytL1 antibody detecting also the cytoplasmic part of L1CAM. HSP90 was detected as a control for equal protein load. (b,d) Thirty minutes after treatment with the respective inhibitor, cells were either left untreated or treated with 20 μg/mL etoposide for 24 hours. Then, cells were analysed for caspase-3/-7 activity expressed as n-fold induction of caspase-3/-7 activity of basal. Means±SD from three independent experiments are shown. * indicates p<0.05.
as §1, §2

L1CAM [3] = assay: L1CAM cleavage by western blotting in L1CAM transfected PT45-P1 cells; conditions: inhibitor 10 μmol/L, 24 hours
Method: as §4, §3

NO release = assay: NO-assay in supernatants of PT45-P1res cells; conditions: 250 ng/mL IL1-RA 24 hours
Method: PT45-P1res cells were transfected with a control siRNA or with a L1CAM specific siRNA. (a) RNA from transfected PT45-P1res cells was subjected to RT and subsequent Real-time PCR using primers specific for iNOS. In parallel, a Real-time PCR was conducted for β-actin, which was used as a control. Results from one representative out of three experiments are shown. Data are expressed as amount of mRNA in arbitrary units. Each sample was measured in duplicates. (b) siRNA transfected cells (16 h) were either left untreated or were treated with 250 ng/mL IL1RA for 24 hours. Then, supernatants were cleared and subjected to a commercial NO assay. The amount of NO was normalized to equal cell number which was determined in parallel (expressed as μmol NO/10^5 cells). (c) siRNA transfected cells (16 h) were either left untreated or were treated with 250 ng/mL IL1-RA and 20 μg/mL etoposide, either alone or in combination for 24 hours. Then, cells were analysed for caspase-3/-7 activity expressed as n-fold induced caspase-3/-7 activity of basal. Means±SD from three independent experiments are shown. * indicates p<0.05.
Cells were seeded for transfection and cultured as described above. […] NO secreted into cell culture supernatants was quantified using the Total nitric oxide (NO) calorimetric assay (R&D Systems). […] Concentrations of measured NO were normalized to the cell numbers determined in parallel.

[4] = Induction of apoptosis, Nicoletti staining, in HEK293-hL1 cells; conditions: human; L1-expressing HEK293; C2-ceramide 40 μM or staurosporine 2 μM, 24 h, serum-free, Nicoletti staining; read-out: cells still viable after treatment
Method: (§5) Cells (1×10^5 cells per well) were cultured in duplicate in 6 well culture plates and, after washing once with PBS, incubated for the indicated timepoints with or without apoptotic stimuli in serum-free medium. Staurosporine (2 μM), C2-ceramide (40 μM) or cisplatin (17 μM) were used as apoptotic reagents. For hypoxia studies, cells were incubated for different time points under hypoxic conditions (1% O2) using a Reming Bioinstruments chamber and oxygen regulator (Reming Bioinstruments, Redfield, N.Y.).
(§6) For quantification of DNA fragmentation, supernatants were centrifuged at 200×g. The cell pellet was washed once in PBS (pH 7.4) and lysed in a hypotonic lysis buffer (0.1% sodium citrate, 0.1% Triton X-100, 50 μg/ml propidiumiodite) at 4° C. overnight. The nuclei were then analyzed for DNA content by flow cytometry. The staining of cells for flow cytometry with mAbs and PE-conjugated secondary antibodies has been described. Cells were analysed with a FACScan using Cellquest or FlowJo software from Becton Dickinson (Heidelberg, Germany).

[5] = Induction of apoptosis, Nicoletti staining, in HEK293 cells; conditions: human; wild-type (parental) HEK293; C2-ceramide 40 μM or staurosporine 2 μM, 24 h, serum-free, Nicoletti staining; read-out: cells still viable after treatment
Method: as §5, §6

Compound | apoptosis induction after etoposide treatment (caspase-3/-7) (PT45-P1res cells) | L1CAM expression (full-length 220 kDa and 32 kD fragment) (L1CAM [1]) | apoptosis inducing effect of etoposide (caspase-3/-7) [2] | expression of full-length L1CAM and level of the 32 kD fragment (L1CAM [3]) | further results
CC(C)C[C@H](NC(=O)[C@H](Cc1ccccc1)C[C@@H](O)[C@H](Cc1ccccc1)NC(=O)OC(C)(C)C)C(=O)N[C@@H](Cc1ccccc1)C(N)=O [L685,458] | did not significantly affect apoptosis induction after etoposide treatment | neither of the inhibitors changed L1 CAM expression | nor affect the apoptosis inducing effect of etoposide | did neither influence the expression of full-length L1CAM nor increased the level of the 32 kD fragment | –
IL1-RA: Interleukin 1 receptor antagonist from R&D Systems | – | – | – | – | etoposide induced caspase activation (PT45-P1res cells; 250 ng/mL IL1-RA, control transfected cells): increased; L1CAM expression (mRNA and protein) (L1CAM [1]; 250 ng/mL IL1-RA, 6 or 24 hours): reduced L1CAM expression; NO levels (NO release; cells with L1CAM knock down): no further reducing effect; NO levels (NO release; control siRNA transfected cells): could be decreased
CC(C)C[C@H](CC(=O)NO)C(=O)N[C@@H](Cc1ccc2ccccc2c1)C(=O)N[C@@H](C)C(=O)NCCN [Tapi-1] | did not significantly affect apoptosis induction after etoposide treatment | neither of the inhibitors changed L1 CAM expression | nor affect the apoptosis inducing effect of etoposide | did neither influence the expression of full-length L1CAM nor increased the level of the 32 kD fragment | –
CC(=O)NC(C(=O)O)C(C)(C)SN=O (racemic) [SNAP, S-Nitroso-N-acetyl-D,L-penicillamine] | – | – | – | – | increased caspase activity during L1CAM knock-down (PT45-P1res cells; 200 μmol/L SNAP with 20 μg/mL etoposide, 24 hours): completely reversed the increased caspase activity
CNC(=O)[C@H](Cc1c[nH]c2ccccc12)NC(=O)[C@@H](CC(=O)NO)CC(C)C [GM6001] | did not significantly affect apoptosis induction after etoposide treatment | neither of the inhibitors changed L1 CAM expression | nor affect the apoptosis inducing effect of etoposide | did neither influence the expression of full-length L1CAM nor increased the level of the 32 kD fragment | –
CN[C@@H]1C[C@H]2O[C@@](C)([C@@H]1OC)n1c3ccccc3c3c4c(c5c6ccccc6n2c5c31)C(=O)NC4 [staurosporine] | – | – | – | – | viability at 24 h, 2 μM [4]: 77%; viability at 24 h, 2 μM [5]: 59%
